# In patent publication US20250375441A1, “ONCOLYTIC THERAPY WITH A DUAL HDAC3 AND HDAC8 TARGETING AGENT” (priority 2024, published 2025):
# Legend:
# [1] = target: HDAC2 (Homo sapiens, UniProt Q92769); assay: ZEBRA flow cytometry in cells overexpressing FLAG-HDAC2; settings: HH514-16, 1 μM YX968 or 3 mM NaB, 24 hours after treatment, N=3
# [2] = test system: EBV; assay: EBV viral load by qPCR for BALF5, normalized to 18S; format: cell-based; settings: HH514-16, 1 μM YX968 for 18 hours, then ganciclovir 40 μM; vs no ganciclovir, N=2
# Experimental: Ganciclovir was then added at a concentration of 40 μM. Cells were then centrifuged, DNA was extracted, and qPCR for BALF5—a single copy EBV gene—was then used to determine the viral load of EBV in the cells. The ribosomal gene 18S was used as the control to normalize for the number of cells collected. […] N=2 biological replicates.
# [3] = test system: EBV-positive HH514-16 Burkitt lymphoma cell line; assay: qPCR of late lytic gene BFRF3; format: cell-based; settings: HH514-16, varying concentrations, 48 hours, vs DMSO (0.1%), N=3
# Experimental: Cells were harvested, RNA was extracted, RNA was converted to cDNA, and qPCR was performed. Expression of BFRF3, a late lytic gene, is increased (FIG. 2). […] Progression of the lytic cycle to late lytic gene expression indicates availability of the early gene product needed to activate ganciclovir. N=3 biological replicates.
# [4] = test system: EBV-positive HH514-16 Burkitt lymphoma cell line; assay: ZEBRA staining by flow cytometry (EBV lytic reactivation); format: cell-based; settings: HH514-16, varying concentrations, 24 hours, vs DMSO (0.1%)
# From the text: Cells were harvested, fixed and permeabilized, stained with a monoclonal antibody to the viral latent-to-lytic switch protein ZEBRA (Bam Z EBV Replication Activator), and examined by flow cytometry. ZEBRA is an early lytic protein of EBV, encoded by BZLF1, that drives the lytic cascade. Cells were stained in parallel with an isotype-matched control antibody for placement of gates.
# [5] = test system: HH514-16 cells; assay: Cell death after exposure; format: cell-based; settings: 1 μM, 72 hours, vs DMSO (0.1%), N=2
# [6] = test system: BZLF1 promoter; assay: H3K27Ac chromatin immunoprecipitation and qPCR at the BZLF1 promoter; settings: HH514-16, 1 μM, 12 hours, vs DMSO (0.1%)
# [7] = target: HDAC1 (Homo sapiens, UniProt Q13547); assay: ZEBRA flow cytometry in cells overexpressing HDAC1-FLAG; settings: HH514-16, 1 μM YX968, 24 hours after treatment, N=3
# [8] = test system: lymphoma cell line BC1 latently infected with KSHV; format: cell-based
# Chain of HDAC2 (Q92769 whole entry): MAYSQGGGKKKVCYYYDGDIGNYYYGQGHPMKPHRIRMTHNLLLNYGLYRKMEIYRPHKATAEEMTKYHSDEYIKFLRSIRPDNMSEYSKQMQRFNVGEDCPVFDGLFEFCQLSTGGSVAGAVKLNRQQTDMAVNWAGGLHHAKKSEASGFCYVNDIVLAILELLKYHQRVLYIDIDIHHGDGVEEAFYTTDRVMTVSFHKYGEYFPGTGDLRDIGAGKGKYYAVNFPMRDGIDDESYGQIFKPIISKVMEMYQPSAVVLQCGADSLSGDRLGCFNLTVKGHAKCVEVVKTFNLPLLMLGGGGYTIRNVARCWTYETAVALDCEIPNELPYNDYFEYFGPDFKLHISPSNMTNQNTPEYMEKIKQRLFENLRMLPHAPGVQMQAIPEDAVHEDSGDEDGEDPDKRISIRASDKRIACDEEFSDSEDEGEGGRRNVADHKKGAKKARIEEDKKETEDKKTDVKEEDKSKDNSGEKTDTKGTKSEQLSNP
# Chain of HDAC1 (Q13547 whole entry): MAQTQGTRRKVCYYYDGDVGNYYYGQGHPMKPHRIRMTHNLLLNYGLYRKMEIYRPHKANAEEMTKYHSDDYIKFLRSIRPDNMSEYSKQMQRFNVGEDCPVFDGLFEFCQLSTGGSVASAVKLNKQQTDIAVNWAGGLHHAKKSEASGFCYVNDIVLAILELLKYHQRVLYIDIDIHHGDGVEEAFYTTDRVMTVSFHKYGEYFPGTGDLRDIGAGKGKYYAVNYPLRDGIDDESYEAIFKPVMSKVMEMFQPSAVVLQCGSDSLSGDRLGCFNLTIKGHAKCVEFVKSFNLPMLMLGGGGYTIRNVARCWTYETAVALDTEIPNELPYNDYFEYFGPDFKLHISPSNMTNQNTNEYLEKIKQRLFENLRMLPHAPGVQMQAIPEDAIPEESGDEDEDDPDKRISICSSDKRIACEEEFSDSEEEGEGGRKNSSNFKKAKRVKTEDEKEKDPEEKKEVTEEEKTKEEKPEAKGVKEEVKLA
SMILES,"ZEBRA expression post-induction, HDAC2 overexpressing vs not overexpressing cells [1]",viral load of EBV [2],"expression of BFRF3, a late lytic gene [3]",levels of ZEBRA (EBV switching to lytic phase) [4],cells left alive [5],amount of acetylated H3K27 at the BZLF1 promoter (fold enrichment vs control IgG) [6],"number of cells that expressed ZEBRA, HDAC1 overexpressing (FLAG positive) vs FLAG negative [7]",expression of immediate early gene RTA [8]
"CCCC(=O)[O-].[Na+] [NaB, sodium butyrate, reference compound]",less likely to express ZEBRA,–,–,–,–,–,–,–
Nc1nc(O)c2ncn(COC(CO)CO)c2n1 [ganciclovir],–,significantly lower,–,–,–,–,–,–
CCCNNC(=O)c1ccc(N2CCN(CCCCCCCC(=O)N[C@H](C(=O)N3C[C@H](O)C[C@H]3C(=O)N[C@@H](C)c3ccc(-c4scnc4C)cc3)C(C)(C)C)CC2)cc1 [YX968],less likely to express ZEBRA,–,increased,increased levels of ZEBRA,significantly fewer cells left alive,statistically significant increase,no significant change,increases in expression
